Series [1] concerns animal model with high-fat-diet-induced muscle loss. The series is described as follows: Fiber diameter of tibialis anterior muscle tissue (H&E staining). The conditions noted are these: 0.2% ethyl vanillin in high-fat diet, 10 weeks. The series is classed as in vivo, C57BL/6N mice. How it is done: A normal diet group (Chow) was fed commercial rodent chow. Ethyl vanillin was purchased from Sigma-Aldrich. [table] Muscle tissues of mice were extracted, fixed in 10% formalin, and then stained with hematoxylin and eosin (H&E) after requesting Korea CFC (Gyeonggi-do, Korea) to do so, and observed using an optical microscope (IX71, Olympus, JPN) and photographed using a digital camera (DP71, Olympus, JPN). The statistical analysis of all data was performed using the Statistical Package for the Social Sciences (SPSS version 21.0, IBM, Armonk, N.Y., USA), and analysis values were expressed as mean±SEM, and a significant difference between groups was verified by ANOVA.

For series [2], the system named is Myostatin. Nature of the series: mRNA expression level by RT-PCR in myotubes. The series is classed as cell-based, mouse. The conditions noted are these: ethyl vanillin with dexamethasone vs dexamethasone control. Here is the method:
(§1) After completing the incubation of all experimental groups and the control, cells of each group were obtained, 334 μl of a TRIzol solution per 1×10^7 myotubes was added and replaced, followed by centrifugation at 12,000×g and 4° C. for 10 minutes. Thereafter, the supernatant was transferred to a new tube and 67 μl of chloroform was added thereto, followed by mixing by vortexing. The supernatant in the mixed solution was transferred again to a new tube, and isopropanol was added thereto in a ratio of 1:1 (v:v) of isopropanol to supernatant, followed by vigorous shaking about 10 times and being left at room temperature for 15 minutes. Once again, centrifugation was carried out at 12,000×g and 4° C. for 10 minutes to remove a supernatant, and 1 ml of 70% ethanol was added to the precipitate, followed by centrifugation at 7,500×g and 4° C. for 5 minutes to remove the ethanol, and the tubes were dried at room temperature for 15 minutes. Finally, precipitated RNA was dissolved in nuclease free water to obtain RNA extracted from the cells. The concentration of RNA was identified by measuring absorbance at wavelengths of 260 nm and 280 nm using a UV/VIS spectrometer, and was subjected to electrophoresis to confirm the integrity of RNA samples.
(§2) Reverse transcription-polymerase chain reaction (RT-PCR) was performed using the prepared RNA samples. The obtained RNA samples were used as templates and reverse transcription was performed using oligo dT primers and SuperScript Reverse Transcriptase (GIBCO BRL, Gaithersburg, Md., USA) to synthesize cDNA. The synthesized cDNA was used as a template and PCR was performed using primer pairs (forward primers and reverse primers) shown in Table 1 below. Each primer was constructed based on the 5′ and 3′ flanking sequence of cDNA of the template gene to be amplified. After PCR was completed, 1 μl of each amplified PCR product was subjected to electrophoresis on agarose gel to confirm generated DNA bands.

The subject of series [3] is MuRF1. The series is described as follows: mRNA expression level by RT-PCR in myotubes. Format: cell-based, mouse. The conditions noted are these: ethyl vanillin with dexamethasone vs dexamethasone control. Here is the method:
as §1, §2

Series [4] relates to MaFbx/atrogin 1. Nature of the series: mRNA expression level by RT-PCR in myotubes. Format: cell-based, mouse. The conditions noted are these: ethyl vanillin with dexamethasone vs dexamethasone control. How it is done: as §1, §2
For series [5], the system named is animal model with high-fat-diet-induced muscle loss. Nature of the series: Grip test in mice fed a high-fat diet. The series is classed as in vivo, C57BL/6N mice. The conditions noted are these: 0.2% ethyl vanillin in high-fat diet, week 10. How it is done:
A normal diet group (Chow) was fed commercial rodent chow. Ethyl vanillin was purchased from Sigma-Aldrich. [table] To measure the grip strength of mice, grip strength was measured using four feet of the mice at week 10 of breeding. A force (N) for mice to hold a wire mesh was measured a total of five times using a grip strength measurer equipped with a wire mesh (20×10 cm) (Daejong Instrument Industry Co., Ltd., Korea), and a rest period of 1 minute or longer was given between measurements. Experimental results were obtained by dividing the measured force (N) by body weight (kg). The statistical analysis of all data was performed using the Statistical Package for the Social Sciences (SPSS version 21.0, IBM, Armonk, N.Y., USA), and analysis values were expressed as mean±SEM, and a significant difference between groups was verified by ANOVA.

For series [6] the following is noted: cited from earlier work.
In series [7] the test system is mouse myoblast cell line (C2C12 cells). Nature of the series: Thickness of myotubes differentiated from mouse myoblasts, muscle reduction induced by dexamethasone. Format: cell-based. Here is the method:
First, differentiation of myotubes from mouse myoblasts was induced. A mouse myoblast cell line (C2C12 cells) was purchased from ATCC (Manassas, Va., USA) and used. The purchased cells were inoculated in 10% fetal bovine serum media (Gibco-BRL) and incubated in a 5% CO2 incubator at 37° C. When the confluency of the cells attached to the media became 80% or higher, the cells were transferred to 2% horse serum media (Gibco-BRL) to differentiate myoblasts into myotubes.
For two days (48 hours) from day 4 after differentiation into myotubes started to be induced, the media were treated with 50 μM dexamethasone (dexa; Sigma Aldrich, USA) to induce muscle reduction. […] As a non-treated control, cells treated with only dexamethasone and not treated with ethyl vanillin were used.
After completion of the incubation, the cells were washed twice with phosphate buffered saline (PBS), and then fixed by treatment with 100% methanol for 10 minutes. […]
The stained myotubes were photographed using a fluorescence microscope (IX 71, Olympus) at a magnification of 10×, and then analyzed using image J software (USA). Six sections were randomly selected from each well and micrographed, and the thickness of at least 100 myotubes from each well was analyzed (three repetitions/group).

Series [8] has as its system animal model with high-fat-diet-induced muscle loss. Nature of the series: Four limb hanging test in mice fed a high-fat diet. Format: in vivo, C57BL/6N mice. The conditions noted are these: 0.2% ethyl vanillin in high-fat diet, week 10. How it is done:
A normal diet group (Chow) was fed commercial rodent chow. Ethyl vanillin was purchased from Sigma-Aldrich. [table] To measure the limb muscle strength of mice, the time that the mice hung upside down using their four feet was measured at week 10 of breeding. The time (seconds) that the mice hung upside down in a cage equipped with a wire mesh cover (diameter<0.5 cm) (20×30×50 cm, Jeung-Do Bio & Plant Co., Ltd, Korea) was measured a total of three times, and a rest period of 30 minutes or longer was given between measurements. Experimental results were obtained by multiplying hanging time (sec) by body weight (kg). The statistical analysis of all data was performed using the Statistical Package for the Social Sciences (SPSS version 21.0, IBM, Armonk, N.Y., USA), and analysis values were expressed as mean±SEM, and a significant difference between groups was verified by ANOVA.

The subject of series [9] is p-p70S6K1 protein. Nature of the series: Protein expression level by Western blotting in myotubes. The series is classed as cell-based, mouse. The conditions noted are these: ethyl vanillin with dexamethasone vs dexamethasone control. Here is the method: (§3) After completing the incubation of all experimental groups and the control, the media were removed and a lysis buffer was added to each well to lyse the cells. As the lysis buffer, a 100 mM Tris-HCl buffer solution (pH 7.4) containing 5 mM EDTA, 50 mM sodium pyrophosphate, 50 mM NaF, 100 mM orthovanadate, 1% Triton X-100, 1 mM phenylmethanesulfonyl fluoride (PMSF), […] of aprotinin, 1 μg/mL of pepstatin A, and 1 μg/mL of leupeptin was used. After lysing the cells, the lysates were obtained, and then centrifuged at 1,300×g and 4° C. for 20 minutes, and then the middle layer was taken as a protein layer in the cell extract. For the protein layer, the concentrations of proteins were quantified by the Bradford method. 40 μg of the quantified proteins were electrophoresed by SDS-PAGE, and then the separated proteins were transferred to nitrocellulose membranes (Amersham, Buckinghamshire, UK). Then, the membranes were washed three times for 10 minutes using a Tris-buffered saline and Tween 20 solution (TBS-T), followed by blocking using 10% skim milk for 60 minutes. […] Bands visualized on the X-ray film were scanned and quantified using Quantity One analysis software (Bio-Rad).

For series [10], the system named is p-4E-BP1 protein. The description is as above. The conditions noted are these: ethyl vanillin with dexamethasone vs dexamethasone control. Format: cell-based, mouse. Here is the method:
as §3

Entries after “also recorded” stand apart in the source; their conditions may differ.

With `CCOc1cc(C=O)ccc1O` [ethyl vanillin, 3-ethoxy-4-hydroxybenzaldehyde], the “increase in fiber diameter of the tibialis anterior vs high-fat diet” value in series [1] amounted to 57%. Moreover, in [2], the “expression of Myostatin (mRNA)” value was “significantly reducing”. Also, the “expression of MuRF1 (mRNA)” value in series [3] is “significantly reducing; also recorded: significantly reduces”. Also, in series [4], the “expression of MaFbx/atrogin 1 (mRNA)” value is listed as “significantly reducing; also recorded: significantly reduces”. Moreover, the “increase in grip strength (force/body weight) vs high-fat diet” value in series [5] is recorded as 27%. For the same molecule, the solubility in chloroform result in series [6] (chloroform) is on record as “soluble”. For the same molecule, the solubility in ethanol entry in [6] (ethanol) was “soluble”. In series [6] (water), the solubility in water entry was “insoluble”. In addition, the “increase in thickness of myotubes compared to reduction caused by dexamethasone” value in series [7] (100 μM ethyl vanillin along with 50 μM dexamethasone, 48 hours, C2C12 myotubes) is given as 49%. Also, the “number of myotubes of mouse myoblasts reduced by dexamethasone” value in series [7] (treated with ethyl vanillin, vs dexamethasone) is “significantly increased”. The “increase in holding impulse (hanging time x body weight) vs high-fat diet” value in [8] was 147%. Moreover, the “amount of p-p70S6K1 protein” value in series [9] is “significantly increases”. Further, the “amount of p-4E-BP1 protein” value in series [10] is listed as “significantly increases”.

(Values after patent publication US11576875B2 (priority 2017, dated 2023).)
